Measurements taken from article PMC12040169 (PLOS Biology, 2025).

Test: in vitro
Conditions: human, hela cells, % viability

SMILES	viability at 28.5 h, 10 µM [%]	viability at 28.5 h, 10 µM (bulk resorufin, single well) [%]
Nc1ccn([C@H]2C[C@@H](O)[C@@H](CO)O2)c(=S)n1 [CBK201187]	91.4	
O=C(/C=C/c1cn([C@H]2C[C@@H](O)[C@@H](CO)O2)c(=O)[nH]c1=O)ON1C(=O)CCC1=O [CBK201188]	99.3	
Nc1nc2c(ccn2[C@@H]2O[C@H](CO)[C@H](O)C2O)c(=O)[nH]1 (stereo partly drawn) [CBK201190]	92	
Cn1cc([C@@H]2O[C@H](CO)[C@H](O)C2O)c(=O)n(C)c1=O (stereo partly drawn) [CBK201191]	97.1	
O=C1NC2=NOCCC2=CN1[C@H]1C[C@@H](O)[C@@H](CO)O1 [CBK201192]	96.8	
Nc1nc(Cl)c2ncn([C@H]3C[C@@H](O)[C@@H](CO)O3)c2n1 [CBK201193]	100	
O=c1ncccn1[C@@H]1O[C@H](CO)[C@H](O)C1O (stereo partly drawn) [CBK201195]	94	
Nc1ncnc2c1ncn2[C@@H]1O[C@H](CO)[C@H](O)C1O (stereo partly drawn) [CBK201199]		95.8
Cc1cn(C2CC(O)C(CNC(=O)C(F)(F)F)O2)c(=O)[nH]c1=O (stereo not drawn) [CBK201200]	98	
Nc1ccn(C2CC(O)C(CO)O2)c(=O)n1 (stereo not drawn) [CBK201203]	95.4	
Nc1ncc([C@@H]2O[C@H](CO)[C@H](O)C2O)c(=O)[nH]1 (stereo partly drawn) [CBK201205]	78.1	
C[C@H]1CN([C@H]2C[C@@H](O)[C@@H](CO)O2)C(=O)NC1=O [CBK201206]	96.9	
Nc1nc(N)c2ncn([C@H]3C[C@@H](O)[C@@H](CO)O3)c2n1 [CBK201208]	97.4	
NC(=O)C1=CN([C@@H]2O[C@H](CO)[C@H](O)C2O)C2N=CN=C(N)C12 (stereo partly drawn) [CBK201209]		0.996
COC1C(O)C(CO)OC1n1cc(I)c(=O)[nH]c1=O (stereo not drawn) [CBK201211]	95.1	
COC1C(O)C(CO)OC1n1ccc(NC(=O)c2ccccc2)nc1=O (stereo not drawn) [CBK201212]	94.8	
O=C(/C=C/c1cn(C2CC(O)C(CO)O2)c(=O)[nH]c1=O)NCCNC(=O)C(F)(F)F (stereo not drawn) [CBK201214]	98.2	
C=CCOc1nc2c(=O)[nH]c(NC(=O)C(C)C)nc2n1[C@H]1C[C@@H](O)[C@@H](CO)O1 [CBK201216]	100	
Cc1cc2cn([C@@H]3O[C@H](CO)[C@H](O)C3O)c(=O)nc2[nH]1 (stereo partly drawn) [CBK201219]	98	
O=C(Nc1ncnc2c1nc(OCc1ccccc1)n2C1CC(O)C(CO)O1)c1ccccc1 (stereo not drawn) [CBK201220]	95.3	
Nc1nc(=O)n([C@H]2C[C@@H](O)[C@@H](CO)O2)cc1O [CBK201221]	98.2	

SMILES	viability at 28.5 h, 10 µM [%]	viability at 28.5 h, 10 µM (bulk resorufin, single well) [%]
Nc1ncnc2c1nc1n2[C@@H]2O[C@H](C1)[C@H](O)C2O (stereo partly drawn) [CBK201224]	108	
O=c1[nH]cnc2c1ncn2[C@H]1C[C@@H](O)[C@@H](CO)O1 [CBK201225]	99.5	
Nc1nc(=O)n([C@H]2C[C@@H](O)[C@@H](CO)O2)cc1I [CBK201226]	90.4	
COC1C(O)C(CO)OC1n1cc(C)c(N)nc1=O (stereo not drawn) [CBK201227]	108	
COCc1cn(C2CC(O)C(CO)O2)c(=O)[nH]c1=O (stereo not drawn) [CBK201230]	99.8	
Cc1cn(C2CC(O)C(C3N(c4ccccc4)CCN3c3ccccc3)O2)c(=O)[nH]c1=O (stereo not drawn) [CBK201232]	99.2	
Nc1n[nH]c(=O)c2ncn([C@H]3C[C@@H](O)[C@@H](CO)O3)c12 [CBK201233]	91.4	
Cc1cnc(Cl)c2ncn([C@H]3C[C@@H](O)[C@@H](CO)O3)c12 [CBK201234]	97.7	
O=c1nc2c(cn1[C@H]1C[C@@H](O)[C@@H](CO)O1)Sc1ccccc1N2 [CBK201237]	100	
Nc1nc2c(ccn2[C@H]2C[C@@H](O)[C@@H](CO)O2)c(=O)[nH]1 [CBK201238]	100	
NC1=NC(=O)N([C@H]2C[C@@H](O)[C@@H](CO)O2)CN1 [CBK201248]	108	
O=C(NC/C=C/c1cn(C2CC(O)C(CO)O2)c(=O)[nH]c1=O)C(F)(F)F (stereo not drawn) [CBK201249]	109	
Nc1ncnc2c1ncn2[C@@H]1O[C@H](CCl)[C@H](O)C1O (stereo partly drawn) [CBK201252]	98.8	
COC1C(O)C(CO)OC1n1cc(F)c(=O)[nH]c1=O (stereo not drawn) [CBK201253]	91.4	
O=C1C=C([C@@H]2O[C@H](CO)[C@H](O)C2O)C(=O)N1 (stereo partly drawn) [CBK201255]	101	
Cc1cn(C2CC(O)C(CN=[N+]=[N-])O2)c(=O)[nH]c1=O (stereo not drawn) [CBK201256]	102	
CC#Cc1cn([C@H]2C[C@@H](O)[C@@H](CO)O2)c(=O)nc1N [CBK201257]	105	
NCCCCCCNc1ncnc2c1ncn2[C@H]1C[C@@H](O)[C@@H](CO)O1 [CBK201260]	105	
CC(C)C(=O)Nc1nc2c(nc(OCc3ccccc3)n2C2CC(O)C(CO)O2)c(=O)[nH]1 (stereo not drawn) [CBK201264]	91.8	
Cc1cn([C@@H]2O[C@H](CO)[C@H](O)C2O)c(=O)[nH]c1=O (stereo partly drawn) [CBK201265]	101	
COC1C(O)C(CO)OC1n1cc(F)c(SC)nc1=O (stereo not drawn) [CBK201267]	106	

SMILES	viability at 28.5 h, 10 µM [%]	viability at 28.5 h, 10 µM (bulk resorufin, single well) [%]
COc1nc(N)nc2c1ncn2C1OC(CO)C(O)C1O (stereo not drawn) [CBK201271]	91.6	
CN(C)/C=N/c1ncnc2c1nc(Br)n2C1CC(O)C(CO)O1 (stereo not drawn) [CBK201277]	93.6	
C#CCOc1cn([C@H]2C[C@@H](O)[C@@H](CO)O2)c(=O)[nH]c1=O [CBK201278]	91.7	
COC1C(O)C(CO)OC1n1cc(F)c(Oc2c(C)cc(C)cc2C)nc1=O (stereo not drawn) [CBK201279]	98.2	
Cc1cn2c(nc1=O)OC[C@H]1O[C@@H]2C[C@H]1O [CBK201280]	93.5	
Nc1nc(=O)[nH]c2c1ncn2[C@@H]1O[C@H](CO)[C@H](O)C1O (stereo partly drawn) [CBK201282]	93.7	
CN(C)/C=N/c1nc(=O)[nH]c2c1ncn2C1CC(O)C(CO)O1 (stereo not drawn) [CBK201285]	118	
Nc1nc2c(sc(=O)n2[C@@H]2O[C@H](CO)[C@H](O)C2O)c(=O)[nH]1 (stereo partly drawn) [CBK201286]	96	
O=C1CCN([C@H]2C[C@@H](O)[C@@H](CO)O2)C(=O)N1 [CBK201288]	93.8	
COC1C(O)C(CO)OC1n1cnc2cnc(N)nc21 (stereo not drawn) [CBK201290]	84.9	
Nc1nc2c([C@@H]3O[C@H](CO)[C@H](O)C3O)c[nH]c2c(=O)[nH]1 (stereo partly drawn) [CBK201292]	94.5	
Nc1ccn([C@@H]2O[C@H](CO)[C@H](O)C2O)c(=S)n1 (stereo partly drawn) [CBK201293]	90.9	
CN(C)c1nc2c(ncn2C2OC(CO)C(O)C2O)c(=O)[nH]1 (stereo not drawn) [CBK201295]	96.3	
COC1C(O)C(CO)OC1n1cc(I)c(N)nc1=O (stereo not drawn) [CBK201296]	92.2	
Nc1nc2c(nc(O)n2[C@@H]2O[C@H](CO)[C@H](O)C2O)c(=O)[nH]1 (stereo partly drawn) [CBK201297]	88.5	
Cc1cc2cn([C@H]3C[C@@H](O)[C@@H](CO)O3)c(=O)nc2[nH]1 [CBK201302]	100	
O=c1[nH]c(=O)n([C@@H]2O[C@H](CO)[C@H](O)C2O)cc1I (stereo partly drawn) [CBK201304]	94.6	
CNc1ncnc2c1ncn2C1CC(O)C(CO)O1 (stereo not drawn) [CBK201308]	96.7	
O=C(/C=C/c1cn(C2CC(O)C(CO)O2)c(=O)[nH]c1=O)NCCCCCCNC(=O)C(F)(F)F (stereo not drawn) [CBK201310]	94.3	
CCNc1ccn([C@H]2C[C@@H](O)[C@@H](CO)O2)c(=O)n1 [CBK201311]	95.2	
CNc1nc2c(ncn2C2CC(O)C(CO)O2)c(=O)[nH]1 (stereo not drawn) [CBK201312]	100	

SMILES	viability at 28.5 h, 10 µM [%]	viability at 28.5 h, 10 µM (bulk resorufin, single well) [%]
O=c1[nH]c(=O)n([C@H]2C[C@@H](O)[C@@H](CO)O2)cc1O [CBK201317]	101	
Nc1ncc2ncn([C@@H]3O[C@H](CO)[C@H](O)C3O)c2n1 (stereo partly drawn) [CBK201318]	92.8	
Cc1cn2c(=O)c3ncn([C@H]4C[C@@H](O)[C@@H](CO)O4)c3nc2[nH]1 [CBK201320]	86.6	
Nc1ncnc2c1c(I)cn2[C@@H]1O[C@H](CO)[C@H](O)C1O (stereo partly drawn) [CBK201321]	16.5	
Nc1nc(N)c([C@H]2C[C@@H](O)[C@@H](CO)O2)nc1Cl [CBK201326]	103	
Cc1cn([C@H]2C[C@@H](O)[C@@H](CO)O2)c(N)nc1=O [CBK201327]	100	
COC1C(O)C(CO)OC1n1cnc2c(=O)[nH]cnc21 (stereo not drawn) [CBK201328]	91.3	
O=c1[nH]c(=O)c2ccn([C@H]3C[C@@H](O)[C@@H](CO)O3)c2[nH]1 [CBK201331]	99	
O=c1[nH]c(=O)n([C@H]2C[C@@H](O)[C@@H](CO)O2)cc1CO [CBK201332]	94	
COC(=O)/C=C/c1cn(C2OC(CO)C(O)C2O)c(=O)[nH]c1=O (stereo not drawn) [CBK201339]	106	
O=C(O)C1CCN(C(=O)Cc2c[nH]c3ccccc23)CC1 [CBK202747]	82.7	
COc1cccc(N2CCN(CC(=O)N3CCC(C(N)=O)CC3)CC2)c1 [CBK202881]	106	
O=C(NCC1CCCO1)C1CCCN(C(=O)c2cc(-c3ccccn3)[nH]n2)C1 (stereo not drawn) [CBK210893]	91.7	
CN(C)CCCNC(=O)C1CCN(c2nc3c(-c4ccccc4F)csc3c(=O)[nH]2)CC1 [CBK215438]	93.7	
O=C(NCCN1CCOCC1)C1CCN(c2nc3c(-c4ccccc4F)csc3c(=O)[nH]2)CC1 [CBK215442]	104	
COc1cccc(CNC(=O)C2CCCN(c3nc4c(-c5ccccc5)csc4c(=O)[nH]3)C2)c1 (stereo not drawn) [CBK215463]	99.8	
O=C(NCc1ccncc1)C1CCCN(c2nc3c(-c4ccccc4)csc3c(=O)[nH]2)C1 (stereo not drawn) [CBK215493]	107	
COCCNC(=O)C1CCCN(c2nc3c(-c4ccccc4)csc3c(=O)[nH]2)C1 (stereo not drawn) [CBK215497]	114	
COCCCNC(=O)C1CCCN(c2nc3c(-c4ccccc4)csc3c(=O)[nH]2)C1 (stereo not drawn) [CBK215498]	94	
CN(C)CCNC(=O)C1CCCN(c2nc3c(-c4ccccc4)csc3c(=O)[nH]2)C1 (stereo not drawn) [CBK215501]	88.3	
CN(C)CCCNC(=O)C1CCCN(c2nc3c(-c4ccccc4)csc3c(=O)[nH]2)C1 (stereo not drawn) [CBK215504]	94.6	
